# Assay results taken from paper PMC7004148, “Flexible Fragment Growing Boosts Potency of Quorum‐Sensing Inhibitors against Pseudomonas aeruginosa Virulence” (Chemmedchem, 2019).
# Key:
# PqsR [1] = target: T1, PqsR (Pseudomonas aeruginosa, UniProt Q9I4X0); assay: biochemical; assay type: binding; design: H6SUMOPqsRc87 and T265A mutant H6SUMOPqsRc87 for ITC studies was expressed; made in house; host or cells: E. coli BL21 (λDE3); conditions: for -TΔS / ΔG / EE / LE: Table S1; for EE: enthalpic efficiency; for LE: ligand efficiency
# Procedure: 3.2 Expression and Purification of H6SUMOPqsRc87
# H6SUMOPqsRc87 and T265A mutant H6SUMOPqsRc87 for ITC studies was expressed and purified as previously reported.[8,9] Briefly, E. coli BL21 (λDE3) transfected with the pSUMO3_ck4_pqsRC87 or pSUMO3_ck4_T265ApqsRC87 plasmid[8] were grown in LB medium containing 50 µg mL-1 kanamycin at 37 °C to an OD600 of approximately 0.8 and expression was induced with 0.2 mM IPTG for 16 h at 16 °C. The protein was purified using nickel affinity chromatography in a one step gradient.
# ITC titrations were performed as described before.[8,9] Briefly, ITC experiments were carried out using an ITC200 instrument (Microcal Inc., GE Healthcare). The titrations were performed on 50-150 µM H6SUMO-PqsRC87 in the 200 µL sample cell using 19 injections of 2 µL ligand solution (0.5-1.5 mM) every 180 s. The data were collected and the area under each peak was integrated. To correct for heats of dilution and mixing the final base line consisting of small peaks of the same size at the end of the titration were substracted.
# Target sequence in this assay (Q9I4X0 87-332): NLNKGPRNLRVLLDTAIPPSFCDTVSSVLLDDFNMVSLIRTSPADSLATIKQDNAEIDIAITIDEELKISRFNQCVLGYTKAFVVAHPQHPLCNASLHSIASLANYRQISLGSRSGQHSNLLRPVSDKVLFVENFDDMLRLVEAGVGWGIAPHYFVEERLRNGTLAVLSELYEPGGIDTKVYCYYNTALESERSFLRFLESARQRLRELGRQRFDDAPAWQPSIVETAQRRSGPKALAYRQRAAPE
# PqsR [2] = target: T1, PqsR; assay: PqsR β-galactosidase reporter gene assay in E. coli; assay type: cell-based; design: expressed in transfected cells; host or cells: E. coli DH5α carrying plasmid pEAL08-2
# Procedure: 5. E. coli reporter-gene assay & dose-response curves
# PqsR Reporter gene assay in E. coli. The inverse agonistic/antagonistic activity of potential PqsR ligands was evaluated in a β-galactosidase reporter gene assay in E. coli as previously described.[26] In short, test compounds were co-incubated with E. coli DH5α cells containing the plasmid pEAL08-2,[27] which expresses PqsR and the β-galactosidase LacZ under the control of the pqsA promoter. The inverse agonistic/antagonistic activity of compounds was measured in the presence of 50 nM PQS. After incubation, galactosidase activity was quantified photometrically and expressed as ratio of controls. The given IC50 values represent the mean of at least two independent experiments using at least eight different concentrations of test compound with n = 4. Non-linear regression analysis was done using the log (inhibitor) vs response model included in the GrapPad Prism 5.0 software package.
# Target sequence in this assay (Q9I4X0 whole entry): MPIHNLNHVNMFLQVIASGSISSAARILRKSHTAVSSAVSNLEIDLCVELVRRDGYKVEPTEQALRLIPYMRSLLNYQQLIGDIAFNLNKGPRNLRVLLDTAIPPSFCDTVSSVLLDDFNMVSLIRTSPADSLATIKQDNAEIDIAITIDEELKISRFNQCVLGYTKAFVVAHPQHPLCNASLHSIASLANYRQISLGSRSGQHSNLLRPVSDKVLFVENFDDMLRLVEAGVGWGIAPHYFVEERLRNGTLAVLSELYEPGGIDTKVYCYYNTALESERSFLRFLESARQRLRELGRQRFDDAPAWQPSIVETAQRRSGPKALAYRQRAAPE
# [3] = system: Pseudomonas aeruginosa PA14; assay type: cell-based; conditions: PA14 cultures grown 16 h in the presence of inhibitors
# Procedure: (§1) 6. Effects in P. aeruginosa
# (§2) Pyocyanin Assay. The inhibition of virulence factor pyocyanin was measured as described previously[26] following a procedure established by Essar et al.[28] Briefly, Pseudomonas aeruginosa PA14 cultures were grown in the presence of inhibitors or DMSO as control for 16 h. Pyocyanin was determined photometrically after extraction of the cultures with chloroform and re-extraction with 0.2 M HCl. Protonated red colored pyocyanin was determined by measuring OD520 and normalizing to OD600. None of the compound impaired bacterial viability as observed by the OD600 parameter. Inhibition values were expressed in relation to the DMSO control. Each value is the mean of at least two independent experiments with n=3.
# (§3) The given IC50 values represent the mean of at least two experiments using at least five different concentrations. Curve fitting was performed using the log (inhibitor) vs response model with constrained bottom = 0 and top =100 (GraphPad Prism 5.0).
# (§4) Figure S4: Inhibition of virulence factor pyocyanin was evaluated in the clinical isolate PA14.
# (§5) Representative dose-response curves a) compound 11 b) compound 20. Black dotes (•) represent the reduction of pyocyanin in presents of a given compound concentration relative to DMSO control (= 0 %). The continuous black line is the none -linear regression analysis to […]
# [4] = system: pyocyanin in P. aeruginosa PA14; assay: Pyocyanin assay in P. aeruginosa PA14 cultures; assay type: cell-based, Pseudomonas aeruginosa PA14; conditions: Pseudomonas aeruginosa; for IC50: PA14, read-out: Pyocyanin IC50, PA14 cultures, photometric quantification, mean of at least two independent experiments, SD<25 %; for inhibition at 100 µM: PA14, read-out: Pyocyanin inhibition
# Procedure: as §1, §2, §3, §4, §5
# (1 picture or pasted object on this page, not shown here)
# [5] = system: HQNO levels in PA14pqsH strain; assay: HQNO quantification in PA14pqsH cultures (UHPLC-MS/MS); assay type: cell-based; conditions: Pseudomonas aeruginosa, read-out: HQNO inhibition
# Procedure: (§6) determine IC50 values using a log (inhibitor) vs. response model with constrains (bottom = 0; top =100) (Graph Pad Prism 5.04).
# (§7) HHQ and HQNO Quantification. Extracellular HHQ and HQNO were measured as previously reported[29] following a modified procedure of Lépine et al.:[30] Briefly, P. aeruginosa PA14pqsH cultures were grown in the presence of DMSO as a control or DMSO solutions of inhibitors for 17 h. HHQ and HQNO were quantified from ethyl acetate extracts using 5,6,7,8-tetradeutero-2-heptyl-4(1H)-quinolone (HHQ-d4) as internal standard (IS).
# (§8) UHPLC-MS/MS analysis was performed as described in detail by Storz et al.[31] The following ions were monitored (mother ion [m/z], product ion [m/z], scan time [s], scan width [m/z], […]
# (§9) quantification was performed using Xcalibur software with the use of a calibration curve relative to the area of the IS. Given data represent the mean of at least two independent experiments with n=3 and were expressed as percentage inhibition relative to DMSO control.
# [6] = system: HHQ levels in PA14pqsH strain; assay: HHQ quantification in PA14pqsH cultures (UHPLC-MS/MS); assay type: cell-based; conditions: Pseudomonas aeruginosa, read-out: HHQ inhibition
# Procedure: as §6, §7, §8, §9
# [7] = target: PqsR ligand binding domain; design: method as in PMID 23713667; conditions: native agonist PQS towards the ligand binding domain; cited from earlier work
# PqsR [8] = system: PqsR; design: method as in PMID 24338917; conditions: PQS-mediated effect in E. coli-based assay; read-out: EC 50(E.coli); cited from earlier work
# PqsR [9] = target: T1, PqsR; assay: PQS-mediated effect in P. aeruginosa; assay type: cell-based; design: expressed in transfected cells; host or cells: E. coli DH5α carrying plasmid pEAL08-2
# Target sequence in this assay (Q9I4X0 whole entry): as above
structure (smiles),measurement,setting,value
Nc1cc(NCc2ccccc2)cc(C(F)(F)F)n1 [Compound 12],Kd,PqsR [1],1400 ± 500 nM
same,-TΔS,PqsR [1],3.2 ± 0.5 kcal/mol
same,ΔG,PqsR [1],-8.1 ± 0.3 kcal/mol
same,EE,PqsR [1],0.57 kcal/mol
same,LE,PqsR [1],0.43 kcal/mol
Nc1cc(NCc2ccc(F)cc2F)cc(C(F)(F)F)n1 [Compound 13],Kd,PqsR [1],1300 ± 300 nM
same,-TΔS,PqsR [1],3.5 ± 0.8 kcal/mol
same,ΔG,PqsR [1],-8.0 ± 0.1 kcal/mol
same,EE,PqsR [1],0.55 kcal/mol
same,LE,PqsR [1],0.40 kcal/mol
Nc1cc(NC(=O)c2ccc(F)cc2)cc(C(F)(F)F)n1 [Compound 16],Inverse agonistic/antagonistic activity at a given concentration,"PqsR [2]; @ 100 μM, in the presence of 50 nM PQS",35±5 % @ 100 μM
Nc1cc(N2CCC(c3ccc(F)cc3)C2)cc(C(F)(F)F)n1 (stereo not shown) [Compound 18],IC50 (inverse agonistic/antagonistic activity),"PqsR [2]; in the presence of 50 nM PQS, n.i.=no inhibition (activity≤15 %)",n.i.
Nc1cc(NCCc2ccc(F)cc2)cc(C(F)(F)F)n1 [Compound 19],Kd,PqsR [1],4700 ± 2300 nM
same,-TΔS,PqsR [1],6.1 ± 0.7 kcal/mol
same,ΔG,PqsR [1],-7.4 ± 0.3 kcal/mol
same,EE,PqsR [1],0.64 kcal/mol
same,LE,PqsR [1],0.35 kcal/mol
Nc1cc(NCCCc2ccc(F)cc2)cc(C(F)(F)F)n1 [Compound 20],boost in potency (IC50) versus 11,"PqsR [2]; E. coli reporter gene assay, 20 compared with 11",20 fold
same,EE,PqsR [1],0.50 kcal/mol
same,Bacterial viability (OD600),[3],without affecting bacterial viability
same,IC50,[4],5900 nM
same,inhibition at 100 µM,[5],48 ± 1%
same,inhibition at 100 µM,[6],56 ± 4%
Nc1cc(NCCOc2ccc(F)cc2)cc(C(F)(F)F)n1 [Compound 21],drop in antagonistic activity versus 20,"PqsR [2]; E. coli reporter gene assay, compared with 20",20 fold
same,inhibition at 100 µM,[4],58%
Nc1cc(NCC(=O)Nc2ccc(F)cc2)cc(C(F)(F)F)n1 [Compound 22],inhibition at 100 µM,[4],37%
"O=C(CSc1nc2ccc([N+](=O)[O-])cc2[nH]1)Nc1ccc(Oc2ccccc2)cc1 [Compound R1, reference compound]",IC50,[4],120 nM
"CCCCCCCc1[nH]c2ccc([N+](=O)[O-])cc2c(=O)c1C(N)=O [Compound R2, reference compound]",IC50,[4],2000 nM
"CCCCCCCc1[nH]c2ccccc2c(=O)c1O [PQS, 2‐heptyl‐3‐hydroxy‐4(1H)‐quinolone]",Kd,[7],1200 ± 300 nM
same,EC50,PqsR [8],6.3 nM
same,EC50,PqsR [9],24 nM
